Source: ChEMBL document CHEMBL3885861, “Open TG-GATES”

Species on record: Rattus norvegicus
Experiment: Open TG-GATES - Regimen: Daily Repeat
Type: toxicity, organism-based, Sprague-Dawley
Parameters: regimen Daily Repeat, gender Male, age 6 weeks
Conditions: in vivo, po, route gavage; for APTT / Bas / Eos / Fbg / Hb / Ht / Lym / MCH / MCHC / MCV / Mono / Neu / PT / Plat / RBC / Ret / WBC: tissue Blood; for KIDNEY_L / KIDNEY_R / KIDNEY_TOTAL: tissue Kidney; for LIVER: tissue Liver; for A/G / ALP / ALT / AST / BUN / CRE / Ca / Cl / DBIL / GLC / IP / K / LDH / Na / PL / RALB / TBIL / TC / TG / TP / gamma-GTP: tissue Plasma
[1] = 1 mg/kg, […], dose level Middle, time 14 day
[2] = 1 mg/kg, […], dose level Middle, time 28 day
[3] = 1 mg/kg, […], dose level Middle, time 7 day
[4] = 3 mg/kg, 72 h, dose level High, time 3 day
[5] = 3 mg/kg, […], dose level High, time 7 day
[6] = 3 mg/kg, […], dose level High, time 14 day

Molecule `CN1C(C(=O)Nc2ccccn2)=C(O)c2sc(Cl)cc2S1(=O)=O` [LORNOXICAM] has a TERMINAL_BW [1] of 307.1 g, a TERMINAL_BW [2] of 392.3 g and an APTT [3] of 18.4 s. It also gave a Bas [3] of 0.8%, an Eos [3] of 1% and a Fbg [3] of 239.8 mg/dL. The Hb [3] was 12.9 g/dL, the Ht [3] was 38.3% and the Lym [3] was 71.6%. The MCH [3] was 20.9 pg, the MCHC [3] was 33.6% and the MCV [3] was 62.1 fL. For the same molecule, the Mono [3] was 2.8%, the Neu [3] was 23.6% and the PT [3] was 11.5 s. For the same molecule, the Plat [3] was 139.1 x10_4/uL, the RBC [3] was 617 x10_4/ul and the Ret [3] was 5.7%. The WBC [3] was 135.6 x10_2/uL, the APTT [1] was 20.3 s and the Bas [1] was 0.8%. The Eos [1] was 0.8%, the Fbg [1] was 291.6 mg/dL and the Hb [1] was 12.9 g/dL. It also gave a Ht [1] of 38.8%, a Lym [1] of 62.2% and an MCH [1] of 19.8 pg. It also gave an MCHC [1] of 33%, an MCV [1] of 59.9 fL and a Mono [1] of 3.8%. For the same molecule, the Neu [1] was 31.8%, the PT [1] was 11.4 s and the Plat [1] was 151.7 x10_4/uL. For the same molecule, the RBC [1] was 648 x10_4/ul, the Ret [1] was 5.7% and the WBC [1] was 137.4 x10_2/uL. It also gave an APTT [2] of 18.9 s, a Bas [2] of 0.8% and an Eos [2] of 1%. It also gave a Fbg [2] of 247.2 mg/dL, a Hb [2] of 15.2 g/dL and a Ht [2] of 44.2%. For the same molecule, the Lym [2] was 71%, the MCH [2] was 19.6 pg and the MCHC [2] was 34.2%. For the same molecule, the MCV [2] was 57.1 fL, the Mono [2] was 2.5% and the Neu [2] was 24%. For the same molecule, the PT [2] was 11.7 s, the Plat [2] was 115.1 x10_4/uL and the RBC [2] was 775.8 x10_4/ul. For the same molecule, the Ret [2] was 2.8%, the WBC [2] was 161.4 x10_2/uL and the KIDNEY_L [3] was 1.3 g. It also gave a KIDNEY_R [3] of 1.3 g, a KIDNEY_TOTAL [3] of 2.6 g and a KIDNEY_L [1] of 1.5 g. For the same molecule, the KIDNEY_R [1] was 1.4 g, the KIDNEY_TOTAL [1] was 2.9 g and the KIDNEY_L [2] was 1.5 g. It also gave a KIDNEY_R [2] of 1.5 g, a KIDNEY_TOTAL [2] of 3.1 g and an LIVER [3] of 12.7 g. The LIVER [1] was 12.3 g, the LIVER [2] was 15.1 g and the A/G [3] was 1.4. The ALP [3] was 831.8 IU/L, the ALT [3] was 41.6 IU/L and the AST [3] was 75.6 IU/L. It also gave a BUN [3] of 13.4 mg/dL, a CRE [3] of 0.4 mg/dL and a Ca [3] of 10.6 mg/dL. It also gave a Cl [3] of 104 meq/L, a DBIL [3] of 0.086 mg/dL and a GLC [3] of 194 mg/dL. The IP [3] was 7.4 mg/dL, the K [3] was 4.1 meq/L and the LDH [3] was 210.2 IU/L. The Na [3] was 141.2 meq/L, the PL [3] was 136 mg/dL and the RALB [3] was 3.2 g/dL. The TBIL [3] was 0.1 mg/dL, the TC [3] was 70.6 mg/dL and the TG [3] was 93 mg/dL. The TP [3] was 5.5 g/dL, the gamma-GTP [3] was 1.2 IU/L and the A/G [1] was 1.2. For the same molecule, the ALP [1] was 815.8 IU/L, the ALT [1] was 31.6 IU/L and the AST [1] was 79 IU/L. It also gave a BUN [1] of 21.8 mg/dL, a CRE [1] of 0.5 mg/dL and a Ca [1] of 10.3 mg/dL. For the same molecule, the Cl [1] was 104.6 meq/L, the DBIL [1] was 0.086 mg/dL and the GLC [1] was 189.6 mg/dL. For the same molecule, the IP [1] was 7.1 mg/dL, the K [1] was 4 meq/L and the LDH [1] was 225 IU/L. For the same molecule, the Na [1] was 141.8 meq/L, the PL [1] was 131.2 mg/dL and the RALB [1] was 2.9 g/dL. For the same molecule, the TBIL [1] was 0.1 mg/dL, the TC [1] was 65.6 mg/dL and the TG [1] was 106.2 mg/dL. For the same molecule, the TP [1] was 5.3 g/dL, the gamma-GTP [1] was 2 IU/L and the A/G [2] was 1.3. The ALP [2] was 589.2 IU/L, the ALT [2] was 31.8 IU/L and the AST [2] was 76.2 IU/L. For the same molecule, the BUN [2] was 19 mg/dL, the CRE [2] was 0.5 mg/dL and the Ca [2] was 10.2 mg/dL. For the same molecule, the Cl [2] was 104 meq/L, the DBIL [2] was 0.0925 mg/dL and the GLC [2] was 206.5 mg/dL. The IP [2] was 6.3 mg/dL, the K [2] was 3.8 meq/L and the LDH [2] was 194.2 IU/L. It also gave a Na [2] of 141.8 meq/L, a PL [2] of 142.8 mg/dL and an RALB [2] of 3.3 g/dL. For the same molecule, the TBIL [2] was 0.2 mg/dL, the TC [2] was 69.8 mg/dL and the TG [2] was 150.2 mg/dL. It also gave a TP [2] of 5.8 g/dL, a gamma-GTP [2] of 1.5 IU/L and a TERMINAL_BW [4] of 235 g. The APTT [4] was 18.3 s, the Bas [4] was 0.8% and the Eos [4] was 0.6%. It also gave a Fbg [4] of 354.8 mg/dL, a Hb [4] of 11.6 g/dL and a Ht [4] of 35.4%. For the same molecule, the Lym [4] was 56.8%, the MCH [4] was 20.5 pg and the MCHC [4] was 32.9%. It also gave an MCV [4] of 62.4 fL, a Mono [4] of 6% and a Neu [4] of 29.2%. The PT [4] was 11.4 s, the Plat [4] was 121.4 x10_4/uL and the RBC [4] was 568.2 x10_4/ul. It also gave a Ret [4] of 6.5%, a WBC [4] of 164.3 x10_2/uL and a KIDNEY_L [4] of 1.2 g. The KIDNEY_R [4] was 1.1 g, the KIDNEY_TOTAL [4] was 2.3 g and the LIVER [4] was 12 g. For the same molecule, the A/G [4] was 0.9, the ALP [4] was 648.6 IU/L and the ALT [4] was 30 IU/L. The AST [4] was 57.4 IU/L, the BUN [4] was 12.4 mg/dL and the CRE [4] was 0.4 mg/dL. It also gave a Ca [4] of 10.5 mg/dL, a Cl [4] of 103.8 meq/L and a DBIL [4] of 0.07 mg/dL. For the same molecule, the GLC [4] was 194 mg/dL, the IP [4] was 8 mg/dL and the K [4] was 4.4 meq/L. It also gave an LDH [4] of 163 IU/L, a Na [4] of 140.8 meq/L and a PL [4] of 142.8 mg/dL. For the same molecule, the RALB [4] was 2.4 g/dL, the TBIL [4] was 0.1 mg/dL and the TC [4] was 70.8 mg/dL. The TG [4] was 131.6 mg/dL, the TP [4] was 4.9 g/dL and the gamma-GTP [4] was 1.4 IU/L. The TERMINAL_BW [5] was 246.6 g, the APTT [5] was 18 s and the Bas [5] was 1%. The Eos [5] was 1%, the Fbg [5] was 362 mg/dL and the Hb [5] was 10.9 g/dL. The Ht [5] was 32.8%, the Lym [5] was 56% and the MCH [5] was 20.2 pg. The MCHC [5] was 33.2%, the MCV [5] was 61 fL and the Mono [5] was 4.7%. It also gave a Neu [5] of 36.3%, a PT [5] of 11.1 s and a Plat [5] of 232.1 x10_4/uL. It also gave an RBC [5] of 537.7 x10_4/ul, a Ret [5] of 6% and a WBC [5] of 243.6 x10_2/uL. It also gave a KIDNEY_L [5] of 1.2 g, a KIDNEY_R [5] of 1.2 g and a KIDNEY_TOTAL [5] of 2.3 g. The LIVER [5] was 11.3 g, the A/G [5] was 0.8 and the ALP [5] was 606 IU/L. It also gave an ALT [5] of 23.7 IU/L, an AST [5] of 58.3 IU/L and a BUN [5] of 9 mg/dL. The CRE [5] was 0.4 mg/dL, the Ca [5] was 10.3 mg/dL and the Cl [5] was 105.3 meq/L. The DBIL [5] was 0.0567 mg/dL, the GLC [5] was 176 mg/dL and the IP [5] was 7.7 mg/dL. The K [5] was 4.3 meq/L, the LDH [5] was 206.7 IU/L and the Na [5] was 141.3 meq/L. It also gave a PL [5] of 147 mg/dL, an RALB [5] of 2.4 g/dL and a TBIL [5] of 0.1 mg/dL. The TC [5] was 73.3 mg/dL, the TG [5] was 114.7 mg/dL and the TP [5] was 5.3 g/dL. For the same molecule, the gamma-GTP [5] was 2 IU/L, the GLC [6] was 178 mg/dL and the gamma-GTP [6] was 1 IU/L.
